Calls of active or inactive are those of the source. The rule behind the calls is not given here.
Tests used:
[1] = biological target: Serine/threonine-protein kinase mTOR (Homo sapiens, UniProt P42345); assay: Inhibition of human FLAG-tagged mTOR expressed in HEK293 cells after 2 hrs by DELFIA; type: cell-based
[2] = biological target: Phosphatidylinositol 4,5-bisphosphate 3-kinase catalytic subunit alpha isoform (Homo sapiens, UniProt P42336); assay: Binding affinity to PI3Kalpha by fluorescence polarization assay
[3] = Antiproliferative activity against PTEN deficient human MDA468 cells after 3 days by MTS assay; type: functional, cell-based; details: MDA-MB-468, 72 h
[4] = Selectivity ratio, IC50 for PI3Kalpha to IC50 for human FLAG-tagged mTOR
[5] = Metabolic stability in human microsomes assessed as half life; type: ADME, Microsome
LNCaP = assay: Antiproliferative activity against PTEN deficient human LNCAP cells after 3 days by MTS assay; type: functional, cell-based; details: 72 h
[6] = biological target: Phosphatidylinositol 4,5-bisphosphate 3-kinase catalytic subunit gamma isoform (Homo sapiens, UniProt P48736); assay: Inhibition of PI3Kgamma
Mus musculus [7] = assay: Inhibition of TORC2 in human MDA-MB-361 cells xenografted nude mouse assessed as p-AKT S473 level at 25 mg/kg, iv; type: functional, organism-based; design: dose 25 mg/kg
MDA-MB-361 [8] = assay: Antitumor activity against human MDA-MB-361 cells xenografted in nude mouse assessed as inhibition of tumor growth at 20 mg/kg, iv every 5 days for 21 days; type: functional, organism-based; design: dose 20 mg/kg
Mus musculus [9] = assay: Antitumor activity against human MDA-MB-361 cells xenografted in nude mouse assessed as inhibition of tumor growth at 10 to 25 mg/kg, iv administered daily; type: functional, organism-based
[10] = Metabolic stability in mouse microsomes assessed as half life; type: ADME, Microsome
[11] = AUC in nude mouse at 5 mg/kg, iv; type: ADME, organism-based; design: dose 5 mg/kg, route intravenous; details: plasma
[12] = Half life in nude mouse at 5 mg/kg, iv; type: ADME, organism-based; design: dose 5 mg/kg, route intravenous; details: in vivo
[13] = Clearance in nude mouse at 5 mg/kg, iv; type: ADME, organism-based; design: dose 5 mg/kg, route intravenous; details: in vivo
[14] = Plasma concentration in nude mouse at 25 mg/kg, iv after 8 hrs; type: ADME, organism-based; design: dose 25 mg/kg, route intravenous
Mus musculus [15] = assay: Inhibition of TORC1 in human MDA-MB-361 cells xenografted nude mouse assessed as p70-S6K level at 25 mg/kg, iv; type: functional, organism-based; design: dose 25 mg/kg
MDA-MB-361 [16] = assay: Inhibition of mTORC2 in human MDA-MB-361 cells assessed as phosphorylated AKT S473 level at 25 nM
Mus musculus [17] = assay: Toxicity in nude mouse xenografted with human MDA-MB-361 cells at 10 to 25 mg/kg, iv administered daily; type: organism-based; design: dose 10-25 mg/kg, route intravenous; details: in vivo
[18] = biological target: Phosphatidylinositol 4,5-bisphosphate 3-kinase catalytic subunit beta isoform (Homo sapiens, UniProt P42338); assay: Inhibition of PI3Kbeta
[19] = Volume of distribution at steady state in nude mouse at 5 mg/kg, iv; type: ADME, organism-based; design: dose 5 mg/kg, route intravenous; details: in vivo, read-out: Vdss
[20] = Solubility at pH 3; type: physicochemical; details: buffer

Sequence of Phosphatidylinositol 4,5-bisphosphate 3-kinase catalytic subunit alpha isoform (P42336 whole entry, canonical isoform): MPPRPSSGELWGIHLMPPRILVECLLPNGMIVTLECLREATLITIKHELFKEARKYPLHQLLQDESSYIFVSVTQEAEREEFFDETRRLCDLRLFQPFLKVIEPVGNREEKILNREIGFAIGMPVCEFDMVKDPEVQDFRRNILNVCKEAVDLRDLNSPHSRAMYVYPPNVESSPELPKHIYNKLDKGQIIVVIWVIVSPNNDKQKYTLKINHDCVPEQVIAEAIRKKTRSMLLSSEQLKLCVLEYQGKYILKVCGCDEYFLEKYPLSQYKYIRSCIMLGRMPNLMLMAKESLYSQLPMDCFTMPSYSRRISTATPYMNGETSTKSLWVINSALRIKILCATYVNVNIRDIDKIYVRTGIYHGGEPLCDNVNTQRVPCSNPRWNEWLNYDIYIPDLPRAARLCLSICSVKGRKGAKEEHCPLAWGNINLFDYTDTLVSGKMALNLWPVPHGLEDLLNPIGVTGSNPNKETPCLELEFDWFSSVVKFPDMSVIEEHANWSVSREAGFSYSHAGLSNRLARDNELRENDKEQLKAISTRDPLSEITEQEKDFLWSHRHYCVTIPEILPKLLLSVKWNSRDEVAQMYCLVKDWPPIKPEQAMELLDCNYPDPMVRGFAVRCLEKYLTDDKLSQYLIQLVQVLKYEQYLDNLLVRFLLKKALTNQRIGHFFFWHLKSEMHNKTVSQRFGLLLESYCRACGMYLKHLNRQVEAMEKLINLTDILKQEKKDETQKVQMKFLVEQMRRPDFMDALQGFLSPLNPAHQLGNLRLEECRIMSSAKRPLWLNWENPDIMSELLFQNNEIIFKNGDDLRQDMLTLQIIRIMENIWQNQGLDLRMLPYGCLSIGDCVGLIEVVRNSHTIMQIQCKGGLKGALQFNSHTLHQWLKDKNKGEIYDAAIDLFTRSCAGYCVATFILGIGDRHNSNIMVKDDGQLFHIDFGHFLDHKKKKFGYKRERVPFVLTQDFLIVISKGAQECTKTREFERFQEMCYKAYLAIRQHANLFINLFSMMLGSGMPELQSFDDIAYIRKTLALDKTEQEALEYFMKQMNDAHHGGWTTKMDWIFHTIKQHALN
Sequence of Phosphatidylinositol 4,5-bisphosphate 3-kinase catalytic subunit gamma isoform (P48736 whole entry, canonical isoform): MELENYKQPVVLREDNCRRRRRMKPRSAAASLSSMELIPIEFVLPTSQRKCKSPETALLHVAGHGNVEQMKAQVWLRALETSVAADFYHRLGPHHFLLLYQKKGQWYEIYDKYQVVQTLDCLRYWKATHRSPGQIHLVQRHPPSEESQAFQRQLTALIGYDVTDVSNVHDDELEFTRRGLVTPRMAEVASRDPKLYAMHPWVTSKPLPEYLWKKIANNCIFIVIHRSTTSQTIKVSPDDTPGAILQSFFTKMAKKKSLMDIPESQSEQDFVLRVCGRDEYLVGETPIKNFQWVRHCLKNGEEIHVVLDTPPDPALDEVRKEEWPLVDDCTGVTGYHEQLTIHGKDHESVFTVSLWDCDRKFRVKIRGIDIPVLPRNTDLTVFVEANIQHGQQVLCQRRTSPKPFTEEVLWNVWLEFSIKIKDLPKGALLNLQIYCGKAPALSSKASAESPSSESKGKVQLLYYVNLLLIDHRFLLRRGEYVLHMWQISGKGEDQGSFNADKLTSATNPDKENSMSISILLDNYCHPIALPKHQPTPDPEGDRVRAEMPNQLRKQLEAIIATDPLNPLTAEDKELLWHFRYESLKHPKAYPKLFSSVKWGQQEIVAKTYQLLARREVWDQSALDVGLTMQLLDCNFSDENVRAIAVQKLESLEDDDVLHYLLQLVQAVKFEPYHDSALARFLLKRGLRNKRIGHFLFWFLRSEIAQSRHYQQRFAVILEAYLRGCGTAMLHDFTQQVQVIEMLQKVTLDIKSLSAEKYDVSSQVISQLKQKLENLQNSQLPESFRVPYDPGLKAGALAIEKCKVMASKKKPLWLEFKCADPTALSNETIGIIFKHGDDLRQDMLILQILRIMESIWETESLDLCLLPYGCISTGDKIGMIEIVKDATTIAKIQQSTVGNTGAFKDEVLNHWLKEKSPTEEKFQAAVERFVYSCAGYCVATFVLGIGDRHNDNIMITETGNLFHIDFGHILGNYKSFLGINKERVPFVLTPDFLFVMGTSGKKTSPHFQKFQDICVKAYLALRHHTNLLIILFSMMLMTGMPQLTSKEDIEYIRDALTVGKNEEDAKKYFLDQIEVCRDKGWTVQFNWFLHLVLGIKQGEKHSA
Sequence of Phosphatidylinositol 4,5-bisphosphate 3-kinase catalytic subunit beta isoform (P42338 whole entry, canonical isoform): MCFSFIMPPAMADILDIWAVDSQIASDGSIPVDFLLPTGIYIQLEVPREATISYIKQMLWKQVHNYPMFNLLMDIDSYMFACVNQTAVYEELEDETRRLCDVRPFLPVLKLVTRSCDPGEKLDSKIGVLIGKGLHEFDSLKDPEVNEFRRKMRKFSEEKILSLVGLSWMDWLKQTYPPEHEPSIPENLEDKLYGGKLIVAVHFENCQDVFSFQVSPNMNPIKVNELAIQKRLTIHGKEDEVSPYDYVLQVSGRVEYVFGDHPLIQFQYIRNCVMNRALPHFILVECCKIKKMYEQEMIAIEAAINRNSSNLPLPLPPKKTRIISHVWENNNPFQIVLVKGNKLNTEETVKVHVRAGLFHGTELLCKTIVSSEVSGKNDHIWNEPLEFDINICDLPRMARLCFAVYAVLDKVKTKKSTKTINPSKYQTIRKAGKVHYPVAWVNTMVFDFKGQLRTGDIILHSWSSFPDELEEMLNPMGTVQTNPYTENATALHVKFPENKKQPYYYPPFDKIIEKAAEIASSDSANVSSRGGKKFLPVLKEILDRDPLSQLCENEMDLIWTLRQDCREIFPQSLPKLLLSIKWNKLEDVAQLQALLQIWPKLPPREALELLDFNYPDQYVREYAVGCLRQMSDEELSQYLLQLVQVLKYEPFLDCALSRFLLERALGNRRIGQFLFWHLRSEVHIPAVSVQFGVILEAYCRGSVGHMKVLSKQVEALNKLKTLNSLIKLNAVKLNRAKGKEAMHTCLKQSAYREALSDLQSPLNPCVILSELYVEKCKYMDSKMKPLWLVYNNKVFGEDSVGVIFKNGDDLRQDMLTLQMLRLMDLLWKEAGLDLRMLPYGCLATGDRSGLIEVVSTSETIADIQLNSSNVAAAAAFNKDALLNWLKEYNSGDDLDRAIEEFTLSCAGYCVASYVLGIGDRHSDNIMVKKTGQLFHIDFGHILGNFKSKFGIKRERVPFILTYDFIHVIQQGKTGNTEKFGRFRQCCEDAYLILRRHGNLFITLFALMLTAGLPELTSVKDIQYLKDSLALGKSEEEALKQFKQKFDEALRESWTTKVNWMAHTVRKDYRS

SMILES | IC50 [1] [nM] | IC50 [2] [nM] | IC50 [3] [nM] | Ratio IC50 [4] | half-life [5] [min] | IC50 (LNCaP) [nM] | also measured
CCn1ncc2c(N3CC4CCC(C3)O4)nc(-c3ccc(NC(=O)Nc4ccc(CN5CCN(C)CC5)cc4)cc3)nc21 | 0.7 | 320 | 0.8 | 451 | > 30 | < 0.8 | –
CCn1ncc2c(N3CC4CCC(C3)O4)nc(-c3ccc(NC(=O)Nc4ccc(N5CCOCC5)cc4)cc3)nc21 | 0.2 | – | < 0.7 | 972 | 6 | < 0.7 | –
CCn1ncc2c(N3CC4CCC(C3)O4)nc(-c3ccc(NC(=O)Nc4ccc(C(=O)NN(C)C)cc4)cc3)nc21 | 0.3 | – | < 0.7 | 350 | 23 | < 0.7 | –
O=C(Nc1ccc(-c2nc(N3CC4CCC(C3)O4)c3cnn(CC(F)(F)F)c3n2)cc1)Nc1ccc(N2CCNCC2)cc1 | 0.2 | 76 | 1 | 318 | – | < 0.8 | –
CCn1ncc2c(N3CC4CCC(C3)O4)nc(-c3ccc(NC(=O)Nc4ccc(N(C)C)nc4)cc3)nc21 | – | 282 | 80 | 282 | – | 6 | –
CCn1ncc2c(N3CC4CCC(C3)O4)nc(-c3ccc(NC(=O)Nc4ccc(N5CCCC5)cc4)cc3)nc21 | – | – | 120 | 243 | 5 | 55 | –
CCn1ncc2c(N3CC4CCC(C3)O4)nc(-c3ccc(NC(=O)Nc4ccc(CCO)cc4)cc3)nc21 | 0.1 | – | < 0.7 | 570 | 10 | < 0.7 | –
CCn1ncc2c(N3CC4CCC(C3)O4)nc(-c3ccc(NC(=O)Nc4ccc(NCCN(C)C)cc4)cc3)nc21 | 1.7 | 207 | 7 | 122 | 14 | 2.8 | –
CCn1ncc2c(N3CC4CCC(C3)O4)nc(-c3ccc(NC(=O)Nc4ccc(N5CCOCC5)nc4)cc3)nc21 | 0.3 | – | 8 | 7300 | – | 0.8 | –
CCn1ncc2c(N3CC4CCC(C3)O4)nc(-c3ccc(NC(=O)Nc4ccccc4)cc3)nc21 | – | 66 | 12 | 212 | 5 | 0.8 | –
CCn1ncc2c(N3CC4CCC(C3)O4)nc(-c3ccc(NC(=O)Nc4ccc(CO)cc4)cc3)nc21 | 0.1 | – | < 0.7 | 335 | 11 | < 0.7 | –
CCn1ncc2c(N3CC4CCC(C3)O4)nc(-c3ccc(NC(=O)Nc4ccc(C(=O)NN5CCCC5)cc4)cc3)nc21 | 0.2 | – | 4 | 586 | > 30 | < 0.7 | –
CN1CCN(c2ccc(NC(=O)Nc3ccc(-c4nc(N5CC6CCC(C5)O6)c5cnn(CC(F)(F)F)c5n4)cc3)cc2)CC1 | 0.6 | 150 | 1.5 | 237 | 24 | < 0.8 | IC50 [6]: > 10000 nM; Activity (Mus musculus [7]): Active; Activity (MDA-MB-361 [8]): Active; Activity (Mus musculus [9]): Active; half-life [10]: > 30 min; AUC [11]: 12500 ng·h/mL; half-life [12]: 174 min; clearance [13]: 7 mL/min/kg; concentration at 8 h [14]: 2500 ng/mL; Activity (Mus musculus [15]): Active; Activity (MDA-MB-361 [16]): Active; Activity (Mus musculus [17]): Non-toxic; IC50 [18]: > 10000 nM; Vd [19]: 1.2 L/kg
CCn1ncc2c(N3CC4CCC(C3)O4)nc(-c3ccc(NC(=O)Nc4ccc(N5CCN(C)CC5)nc4)cc3)nc21 | 0.7 | – | 0.8 | 275 | > 30 | < 0.7 | solubility [20]: > 100 µg/mL
CCn1ncc2c(N3CC4CCC(C3)O4)nc(-c3ccc(NC(=O)Nc4ccc(CN)cc4)cc3)nc21 | 0.2 | 21 | < 0.8 | 95 | > 30 | < 0.8 | –
CCn1ncc2c(N3CC4CCC(C3)O4)nc(-c3ccc(NC(=O)Nc4ccc(CN(C)C)cc4)cc3)nc21 | 1.1 | 263 | 30 | 239 | 29 | 7 | –
CCn1ncc2c(N3CC4CCC(C3)O4)nc(-c3ccc(NC(=O)Nc4ccc(N5CCN(C)CC5)cc4)cc3)nc21 | 0.3 | 51 | < 0.7 | 188 | > 30 | < 0.7 | –
CCn1ncc2c(N3CC4CCC(C3)O4)nc(-c3ccc(NC(=O)Nc4ccc(NC)nc4)cc3)nc21 | – | – | 200 | 302 | – | 17 | –
CCn1ncc2c(N3CC4CCC(C3)O4)nc(-c3ccc(NC(=O)NCCN(C)C)cc3)nc21 | 51 | – | 1250 | 16 | – | 350 | –
CCNC(=O)Nc1ccc(-c2nc(N3CC4CCC(C3)O4)c3cnn(CC)c3n2)cc1 | 0.6 | – | 80 | 2230 | – | 16 | –
CCn1ncc2c(N3CC4CCC(C3)O4)nc(-c3ccc(NC(=O)Nc4ccc(OCCN(C)C)cc4)cc3)nc21 | 0.8 | 136 | 8 | 172 | > 30 | < 0.7 | –
CN(C)CCn1ncc2c(N3CC4CCC(C3)O4)nc(-c3ccc(NC(=O)Nc4cccnc4)cc3)nc21 | – | – | 220 | 89 | – | 50 | –
CCn1ncc2c(N3CC4CCC(C3)O4)nc(-c3ccc(NC(=O)Nc4ccc(N(C)CCN(C)C)cc4)cc3)nc21 | 0.9 | 256 | 0.8 | 295 | 14 | 0.8 | –
CCn1ncc2c(N3CC4CCC(C3)O4)nc(-c3ccc(NC(=O)Nc4cccnc4)cc3)nc21 | 0.1 | 148 | 1.2 | 1120 | 4 | < 0.8 | –
CCn1ncc2c(N3CC4CCC(C3)O4)nc(-c3ccc(NC(=O)Nc4ccc(OCCN5CCOCC5)nc4)cc3)nc21 | 1 | – | 0.8 | 383 | – | < 0.7 | solubility [20]: > 100 µg/mL
CCNC(=O)Nc1ccc(-c2nc(N3CC4CCC(C3)O4)c3cnn(CCN(C)C)c3n2)cc1 | – | – | 1800 | 240 | – | 280 | –
